# Experimental data as given in ChEMBL document CHEMBL4257490, “Development of a peptide-based bifunctional chelator conjugated to a cytotoxic drug for the treatment of melanotic melanoma” (Medchemcomm, 2018).
# Active and inactive are the calls of the source. No cut-off for these calls is given here. Residues, ends and D or L forms follow the SMILES beside them. *: point of attachment. X1 = O=c1nc(N*)ccn1[C@@H]1O[C@H](CO)[C@@H](O)C1(F)F
# Key:
# [1] = Hemolytic activity in rat erythrocytes up to 50 uM after 1 hr relative to control; assay type: ADME, cell-based, Erythrocyte; conditions: read-out: Activity
# [2] = Drug uptake in tumor of Balb/c mouse allografted with mouse B16F10 cells using 99mTc(CO)3-labeled compound at 4 to 8 MBq, iv measured at 4 hrs by scintigraphic imaging method; assay type: ADME, organism-based, Neoplasm; conditions: in vivo
# B16-F10 [3] = assay: Induction of apoptosis in mouse B16F10 cells at IC50 after 72 hrs by annexin V-FITC/propidium iodide staining-based flow cytometric method relative to control; assay type: functional
# [4] = Ratio of drug level in tumor to blood of Balb/c mouse allografted with mouse B16F10 cells using 99mTc(CO)3-labeled compound at 10 to 12 MBq/kg, iv measured at 2 hrs; assay type: ADME, organism-based, Tumor/tissue
# [5] = Drug uptake in liver of Balb/c mouse allografted with mouse B16F10 cells using 99mTc(CO)3-labeled compound at 10 to 12 MBq/kg, iv measured at 2 hrs; assay type: ADME, organism-based; conditions: in vivo
# B16-F10 [6] = assay: Antitumor activity against mouse B16F10 cells allografted in Balb/c mouse assessed as tumor growth inhibition at 25 mg/kg, iv administered thrice weekly for 21 days starting on day 10 post tumor implantation relative to control; assay type: functional; conditions: read-out: TGI
# [7] = Drug uptake in kidney of Balb/c mouse allografted with mouse B16F10 cells using 99mTc(CO)3-labeled compound at 10 to 12 MBq/kg, iv measured at 2 hrs; assay type: ADME, organism-based; conditions: in vivo
# [8] = Ratio of drug level in tumor to blood of Balb/c mouse allografted with mouse B16F10 cells using 99mTc(CO)3-labeled compound at 10 to 12 MBq/kg, iv measured at 4 hrs; assay type: ADME, organism-based, Tumor/tissue
# B16-F10 [9] = assay: Antitumor activity against mouse B16F10 cells allografted in Balb/c mouse assessed as decrease in tumor development at 25 mg/kg, iv administered thrice weekly for 21 days starting on day 10 post tumor implantation by haematoxylin and eosin staining-based method; assay type: functional, organism-based
# [10] = Drug uptake in urinary bladder of Balb/c mouse allografted with mouse B16F10 cells using 99mTc(CO)3-labeled compound at 4 to 8 MBq, iv measured at 4 hrs by scintigraphic imaging method; assay type: ADME, organism-based; conditions: in vivo
# [11] = Drug uptake in stomach of Balb/c mouse allografted with mouse B16F10 cells using 99mTc(CO)3-labeled compound at 10 to 12 MBq/kg, iv measured at 2 hrs; assay type: ADME, organism-based; conditions: in vivo
# [12] = Drug uptake in mouse B16F10 cells using 5,6-carboxyfluorescein-labeled compound at 20 ug/ml after 4 hrs by DAPI staining-based fluorescence microscopic method; assay type: ADME, cell-based; conditions: b16-f10, 4 h
# [13] = Drug uptake in muscle of Balb/c mouse allografted with mouse B16F10 cells using 99mTc(CO)3-labeled compound at 10 to 12 MBq/kg, iv measured at 2 hrs; assay type: ADME, organism-based, Muscle tissue; conditions: in vivo
# [14] = n-Octanol-phosphate buffer partition co-efficient, log P of 99mTc(CO)3-labeled compound at 2 to 3 KBq after 1 min by gamma scintillation counting method; assay type: physicochemical
# [15] = Drug uptake in mouse B16F10 cells using 99mTc(CO)3-labeled compound at 15 to 20 MBq/ml after 30 mins by gamma scintillation counting method; assay type: ADME, cell-based; conditions: b16-f10, 0.5 h
# [16] = Drug uptake in liver of Balb/c mouse allografted with mouse B16F10 cells using 99mTc(CO)3-labeled compound at 10 to 12 MBq/kg, iv measured at 4 hrs; assay type: ADME, organism-based; conditions: in vivo
compound,measurement,setting,value
NCCCC[C@H](NC(=O)CNC(=O)[C@H](Cc1cnc[nH]1)NC(=O)[C@H](CCCCN)NC(=O)[C@H](Cc1ccc(O)cc1)NC(=O)[C@@H](N)Cc1cnc[nH]1)C(=O)N[C@@H](CC(=O)Nc1ccn([C@@H]2O[C@H](CO)[C@@H](O)C2(F)F)c(=O)n1)C(N)=O (H-HYKHGKD(X1)-NH2),hemolysis at 1 h,[1],5 to 6%
same,Drug uptake,[2],Active
same,Activity,B16-F10 [3],61%
same,Kp at 2 h,[4],0.95
same,Drug uptake,[5],17.65 % ID/g
same,inhibition in vivo at 25 mg/kg,B16-F10 [6],62%
same,Drug uptake,[7],18.96 % ID/g
same,Kp at 4 h,[8],1.77
same,Activity,B16-F10 [9],Active
same,Drug uptake,[10],Active
same,Drug uptake,[11],0.25 % ID/g
same,Drug uptake,[12],Active
same,Drug uptake,[13],0.17 % ID/g
same,logP at 1 min,[14],-0.629
same,Drug uptake,[15],42.34%
same,Drug uptake,[16],15.62 % ID/g
